# pEC50: −log10 of the molar value.
# Target: T1, delF508-CFTR (Homo sapiens, UniProt P13569, DEL508-508)
# T1 construct: expressed in transfected cells
# Test: Measurement of delF508-CFTR-HRP surface expression in CFBE41o- cells
# Format: cell-based
# Settings: for pEC50: HRP-tagged delF508-CFTR surface expression, CFBE41o- cells, 24 h with compound, 10-point curve, highest concentration 10 μM; for Emax: CFBE41o-, efficacy relative to reference compound 3-(6-(1-(2,2-difluorobenzo[d][1,3]dioxol-5-yl)cyclopropane-1-carboxamido)-3-methylpyridin-2-yl)benzoic acid, read-out: DelF508-CFTR-HRP Amax %
# Description: Measurement of deIF508-CFTR-HRP Surface Expression in CFBE41o-Cells
# This assay quantifies the cell surface expressions of the mutant CFTR channel using an extracellular HRP tag.
# A cellular assay was developed to measure surface expression of horseradish peroxidase (HRP) tagged delF508-CFTR in the human bronchial epithelial immortalized CFBE41o-cell line (Phuan, P. W., et al, (2014) Molecular Pharmacology 86:42-51). Specifically, the HRP sequence was inserted into the fourth extracellular loop of delF508-CFTR and stably expressed in CFBE41o-cells. Cells were seeded in 384 well plate at a density of 5000 cells/well and incubated at 37° C. for 12 to 24 hours in medium (Gibco MEM #11095, 10% FBS, 10 mM HEPES, […], 200 μg/mL G418, 3 μg/mL Puromycin). The delF508-CFTR-HRP expression was induced with 500 ng/mL doxycycline (Sigma D-9891, dissolved in H2O and sterile filtered) in medium and the cells were incubated at 37° C. for 48 h. Old medium was removed and fresh medium was added containing 500 ng/mL doxycycline and unknown test compound at required test concentration in DMSO, not exceeding 0.5% final DMSO concentration. The highest concentration tested was 10 μM with a 10-point concentration response curve using a 3-fold dilution. After addition of compounds, the cells were incubated for 24 h at 37° C. On the final day, cells were washed four times in PBS containing 1 mM MgCl2 and 0.1 mM CaCl2. HRP-Substrate (SuperSignal ELISA Pico, Fisher #37069) 20 μl/well was added and the luminescence signal was determined (Viewlux, Perkin Elmer). Light was emitted upon addition of exogenous HRP-Substrate only when delF508-CFTR-HRP reached the cell surface and the HRP tag was accessible to the HRP-Substrate (note: HRP-Substrate cannot cross the lipid bilayer to reach delF508-CFTR-HRP misfolded within the cell).
# The median activity for the lowest concentration of the compounds on each assay plate was calculated and this value was used to normalize the signal for each well on the respective plate. Three replicates at each concentrations for every compound were run to determine one EC50. The median value was determined and used to calculate compound activities as described below. Effective half maximal values (EC50) were calculated for each compound by performing logistic regression on measured dose-response data points using the equation: […]
# where “Y” is the observed activity, “Bottom” is the lowest observed value, “Top” is the highest observed value, and the “Hill coefficient” gives the largest absolute value of the slope. The curve fitting is carried out by a curve fitting program implemented at GNF using Matlab (Mathworks).
# The dose response curves also were used to calculate Fold Change (FC) using the equation: […]
# Compound efficacy relative to the reference compound 3-(6-(1-(2,2-difluorobenzo[d][1,3]dioxol-5-yl)cyclopropane-1-carboxamido)-3-methylpyridin-2-yl)benzoic acid was determined using the following formula: […]
# T1 sequence (P13569 with tags, fused parts or gaps DEL508-508): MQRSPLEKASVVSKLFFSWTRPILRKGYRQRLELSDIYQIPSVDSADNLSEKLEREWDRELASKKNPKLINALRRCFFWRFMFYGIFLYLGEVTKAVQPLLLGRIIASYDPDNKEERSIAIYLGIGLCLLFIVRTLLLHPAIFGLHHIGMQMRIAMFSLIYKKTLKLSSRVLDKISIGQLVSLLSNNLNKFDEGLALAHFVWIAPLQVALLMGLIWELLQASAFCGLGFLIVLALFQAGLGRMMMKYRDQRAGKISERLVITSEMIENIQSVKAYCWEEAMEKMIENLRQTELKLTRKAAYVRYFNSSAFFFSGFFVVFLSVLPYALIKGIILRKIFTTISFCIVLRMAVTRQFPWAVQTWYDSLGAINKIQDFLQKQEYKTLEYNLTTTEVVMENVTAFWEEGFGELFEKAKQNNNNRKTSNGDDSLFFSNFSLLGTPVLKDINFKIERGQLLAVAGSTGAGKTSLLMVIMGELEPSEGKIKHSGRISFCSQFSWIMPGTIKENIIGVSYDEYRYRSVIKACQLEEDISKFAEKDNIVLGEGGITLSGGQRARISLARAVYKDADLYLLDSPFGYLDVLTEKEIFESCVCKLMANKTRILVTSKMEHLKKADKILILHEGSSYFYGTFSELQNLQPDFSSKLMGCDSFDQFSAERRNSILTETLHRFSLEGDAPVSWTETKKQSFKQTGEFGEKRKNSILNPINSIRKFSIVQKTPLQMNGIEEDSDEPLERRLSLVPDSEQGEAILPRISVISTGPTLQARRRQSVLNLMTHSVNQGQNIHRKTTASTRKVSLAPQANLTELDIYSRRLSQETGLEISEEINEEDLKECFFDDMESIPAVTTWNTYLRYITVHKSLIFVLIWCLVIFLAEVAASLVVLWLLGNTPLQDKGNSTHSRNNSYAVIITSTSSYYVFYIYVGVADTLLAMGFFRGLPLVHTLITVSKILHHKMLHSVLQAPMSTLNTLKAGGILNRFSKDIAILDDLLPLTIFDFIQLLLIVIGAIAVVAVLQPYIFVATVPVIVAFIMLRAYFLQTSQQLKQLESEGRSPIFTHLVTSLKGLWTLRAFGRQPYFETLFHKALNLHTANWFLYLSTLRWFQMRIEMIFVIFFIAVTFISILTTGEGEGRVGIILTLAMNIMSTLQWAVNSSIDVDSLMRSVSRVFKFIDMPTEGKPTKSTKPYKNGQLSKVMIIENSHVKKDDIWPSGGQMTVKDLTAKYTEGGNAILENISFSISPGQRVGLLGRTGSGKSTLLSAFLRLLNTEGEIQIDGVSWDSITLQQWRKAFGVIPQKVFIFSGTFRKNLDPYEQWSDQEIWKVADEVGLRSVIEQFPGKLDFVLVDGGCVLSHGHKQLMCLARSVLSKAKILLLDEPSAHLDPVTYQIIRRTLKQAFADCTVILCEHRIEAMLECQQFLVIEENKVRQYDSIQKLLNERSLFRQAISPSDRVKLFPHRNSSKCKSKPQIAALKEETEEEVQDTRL
Compound,pEC50,Emax
"O=C(O)CCCN1CCCCOc2ccc(F)cc2-c2nc(ccc2C(F)(F)F)NS(=O)(=O)c2cccc1n2 [Compound 63, 4-(1^5-fluoro-4,4-dioxido-2^3-(trifluoromethyl)-11-oxa-4-thia-3,6-diaza-2,5(2,6)-dipyridina-1(1,2)-benzenacycloundecaphane-6-yl)butanoic acid]",5.74,–
"O=C(O)CCOCCN1CCCCCc2ccccc2-c2nc(ccc2C(F)(F)F)NS(=O)(=O)c2cccc1n2 [Compound 64, 3-(2-(4,4-dioxido-2^3-(trifluoromethyl)-4-thia-3,6-diaza-2,5(2,6)-dipyridina-1(1,2)-benzenacycloundecaphane-6-yl)ethoxy)propanoic acid]",6.04,862%
"O=C(O)CCCN1CCCCCCCc2ccccc2-c2nc(ccc2C(F)(F)F)NS(=O)(=O)c2cccc1n2 [Compound 65, 4-(4,4-dioxido-2^3-(trifluoromethyl)-4-thia-3,6-diaza-2,5(2,6)-dipyridina-1(1,2)-benzenacyclotridecaphane-6-yl)butanoic acid]",6.55,–
"O=C(O)CCCN1CCCCCCCCCc2ccccc2-c2nc(ccc2C(F)(F)F)NS(=O)(=O)c2cccc1n2 [Compound 66, 4-(4,4-dioxido-2^3-(trifluoromethyl)-4-thia-3,6-diaza-2,5(2,6)-dipyridina-1(1,2)-benzenacyclopentadecaphane-6-yl)butanoic acid]",6.65,–
"O=C(O)CCCN1CCCCCc2ccccc2-c2nc(ccc2C(F)(F)F)NS(=O)(=O)c2cccc1n2 [Compound 67, 4-(4,4-dioxido-2^3-(trifluoromethyl)-4-thia-3,6-diaza-2,5(2,6)-dipyridina-1(1,2)-benzenacycloundecaphane-6-yl)butanoic acid]",6.22,–
"O=C(O)CCCN1CCCCCCc2ccc(F)cc2-c2nc(ccc2C(F)(F)F)NS(=O)(=O)c2cccc1n2 [Compound 68, 4-(1^5-fluoro-4,4-dioxido-2^3-(trifluoromethyl)-4-thia-3,6-diaza-2,5(2,6)-dipyridina-1(1,2)-benzenacyclododecaphane-6-yl)butanoic acid]",6.38,–
"O=C(O)CCN1CCCCCCCCc2ccccc2-c2nc(ccc2C(F)(F)F)NS(=O)(=O)c2cccc1n2 [Compound 69, 3-(4,4-dioxido-2^3-(trifluoromethyl)-4-thia-3,6-diaza-2,5(2,6)-dipyridina-1(1,2)-benzenacyclotetradecaphane-6-yl)propanoic acid]",6.45,–
"O=C(O)CCCCCN1CCCCCc2ccccc2-c2nc(ccc2C(F)(F)F)NS(=O)(=O)c2cccc1n2 [Compound 70, 6-(4,4-dioxido-2^3-(trifluoromethyl)-4-thia-3,6-diaza-2,5(2,6)-dipyridina-1(1,2)-benzenacycloundecaphane-6-yl)hexanoic acid]",6.43,843%
"O=C(O)CCCN1CCCCCCCCc2ccccc2-c2nc(ccc2C(F)(F)F)NS(=O)(=O)c2cccc1n2 [Compound 71, 4-(4,4-dioxido-2^3-(trifluoromethyl)-4-thia-3,6-diaza-2,5(2,6)-dipyridina-1(1,2)-benzenacyclotetradecaphane-6-yl)butanoic acid]",6.54,–
"Cc1ccc2nc1-c1ccccc1CCCCCN(CCCC(=O)O)c1cccc(n1)S(=O)(=O)N2 [Compound 72, 4-(2^3-methyl-4,4-dioxido-4-thia-3,6-diaza-2,5(2,6)-dipyridina-1(1,2)-benzenacycloundecaphane-6-yl)butanoic acid]",5.61,396%
"O=CCCCN1CCCCCc2ccccc2-c2nc(ccc2C(F)(F)F)NS(=O)(=O)c2cccc1n2 [Compound 73, 4-(4,4-dioxido-2^3-(trifluoromethyl)-4-thia-3,6-diaza-2,5(2,6)-dipyridina-1(1,2)-benzenacycloundecaphane-6-yl)butanal]",6.36,764%
"O=C(O)COCCN1CCCCCc2ccccc2-c2nc(ccc2C(F)(F)F)NS(=O)(=O)c2cccc1n2 [Compound 74, 2-(2-(4,4-dioxido-2^3-(trifluoromethyl)-4-thia-3,6-diaza-2,5(2,6)-dipyridina-1(1,2)-benzenacycloundecaphane-6-yl)ethoxy)acetic acid]",5.70,745%

# Source: patent publication US20220071971A1, “MACROCYCLIC COMPOUNDS AND THEIR USE IN THE TREATMENT OF DISEASE” (NOVARTIS AG, priority 2018, published 2022)
